Each block holds one compound with its values, some of them ahead of it.
Experiments:
[1] = molecular target: T1, Sirt3 (hSirt3 118-399) (Homo sapiens, UniProt Q9NTG7); assay: switchSENSE kinetics; type: binding; conditions: absence of cofactors; HDAC buffer, 5% DMSO, 25 °C
T1 sequence (Q9NTG7 118-399): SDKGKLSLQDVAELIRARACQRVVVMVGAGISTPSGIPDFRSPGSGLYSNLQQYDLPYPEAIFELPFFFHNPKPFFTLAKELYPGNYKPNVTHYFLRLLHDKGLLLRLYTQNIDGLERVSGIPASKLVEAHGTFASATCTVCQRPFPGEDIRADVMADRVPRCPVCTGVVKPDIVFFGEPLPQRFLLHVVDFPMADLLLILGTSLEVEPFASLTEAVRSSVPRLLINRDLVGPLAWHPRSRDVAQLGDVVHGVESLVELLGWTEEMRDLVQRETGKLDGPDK

[2] = molecular target: T1, Sirt3 (hSirt3 118-399); assay: fluorescence deacetylation assay; type: biochemical; conditions: read-out: % control at 10 μM

Structure (SMILES): C=C(CC)C(=O)c1ccc(OCC(=O)NC2c3ccccc3CCc3cc(OCC(=O)NCCCC)ccc32)c(Cl)c1Cl (centres unmarked) [AA8AC92]
remaining activity at 10 µM [2]: 75.7%

Structure (SMILES): C=C(CC)C(=O)c1ccc(OCC(=O)N[C@H](Cc2ccc(Cl)cc2)C(=O)NCCCC)c(Cl)c1Cl [AA12AC92]
remaining activity at 10 µM [2]: 83.1%

More lines, now with the values ahead:

Kd [1]: 4.56 ± 3.5 µM
Structure (SMILES): CCCCNC(=O)COc1ccc2c(c1)CCc1ccccc1C2NC(=O)CCCOc1cc([N+](=O)[O-])c(C(C)O)cc1OC (centres unmarked) [AA8AC40]

remaining activity at 10 µM [2]: 72.4%
Structure (SMILES): CCCCNC(=O)COc1ccc2c(c1)CCc1ccccc1C2NC(=O)CSC(=S)c1ccccc1 (centres unmarked) [AA8AC71]

remaining activity at 10 µM [2]: 76.5%
Structure (SMILES): CCCCNC(=O)[C@@H](Cc1ccc(Cl)cc1)NC(=O)CSC(=S)c1ccccc1 [AA12AC71]
